For 2 compounds, EC50 and Ki results are on record in patent publication US20150274658A1, “THERAPEUTIC LACTAMS” (Allergan, Inc., priority 2014, published 2015).

The target of test [1] is T1, EP2 (Homo sapiens, UniProt P43116). The test is described as follows: EP2 cAMP functional assay. It counts as cell-based. The source says: (§1) U.S. patent application Ser. No. 11/553,143, filed on Oct. 26, 2006, incorporated by reference herein, describes the methods used to obtain the in vitro data in the table below.
T1 sequence (P43116 whole entry): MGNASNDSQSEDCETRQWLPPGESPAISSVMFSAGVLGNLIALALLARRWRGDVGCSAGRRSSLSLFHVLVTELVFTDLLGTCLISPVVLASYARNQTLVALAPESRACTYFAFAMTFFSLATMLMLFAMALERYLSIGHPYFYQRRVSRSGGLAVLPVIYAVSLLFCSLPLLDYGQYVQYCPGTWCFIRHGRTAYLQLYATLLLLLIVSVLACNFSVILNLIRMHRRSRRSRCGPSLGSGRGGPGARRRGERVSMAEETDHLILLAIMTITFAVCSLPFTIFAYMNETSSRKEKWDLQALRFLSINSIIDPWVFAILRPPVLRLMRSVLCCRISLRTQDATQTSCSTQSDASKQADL
Test [2] concerns the target T1, EP2. The test is described as follows: EP2 binding (Ki).
Text: as §1

`CCCCCC(O)c1ccc(N2C(=O)C(C)C[C@@H]2COCc2ccc(C(=O)O)s2)cc1` (single isomer, unassigned) [Example 1]: the midpoint of the response in test [1], the EC50, lay at 0.233 µM.
As to `CCCCCC(O)c1ccc(N2C(=O)C(C)C[C@@H]2COCc2ccc(C(=O)O)s2)cc1` (single isomer, unassigned) [Example 2], the Ki – broadly, the dissociation constant of the complex between target and ligand, obtained from inhibition or displacement – in test [2] is above 10 µM.
